Patent publication US10925858B2, “S-nitrosoglutathione (GSNO) and GSNO reductase inhibitors for use in therapy” (MUSC FOUNDATION FOR RESEARCH DEVELOPMENT, priority 2017, dated 2021)

System: IFN-γ, IL-4, IL-17, IL-10
Assay: ELISA of CD4+ T cell subset specific cytokines in culture media of CNS derived lymphocytes of EAE mice
Format: in vivo, C57BL/6 mice
Conditions: N6022 1 mg/kg/day
Description: Female C57BL/6 mice of 8-12 weeks of age, purchased from Jackson Laboratory, were provided with food and water ad libitum and were kept in pathogen free animal care facility of Medical University of South Carolina (MUSC) throughout the study. All procedures were conducted in accordance with accepted standards of humane care as approved by the Institutional Animal Care and Use Committee (Approved number: AR #1644). EAE was induced as described previously (Nath et al., 2009). Briefly, mice were immunized subcutaneously in the flank regions with MOG35-55 peptide (MOG; 200 μg; Peptide International) emulsified (1:1) in 100 ul complete Freund's adjuvant (CFA) on day 0 and day 7. Additionally, 300 ng of Pertussis toxin (Sigma-Aldrich, St. Louis, Mo.) was given on day 0 and day 2 by i.p. injection. Pertussis toxin used as per the standardized protocol reported by us and other investigators for the induction of EAE (Nath et al., 2009). Similarly, healthy control group received subcutaneous injection of PBS and CFA emulsion on day 0 and day 7. Clinical signs of EAE were scored by examiners blinded to experimental treatments using the following scale: 0=no clinical signs of disease; 1=piloerection and sluggish; 2=limp tail (ataxia); 2.5=ataxia with partial hind limb paralysis; 3=full paralysis of hind limb; 3.5=full paralysis of hind limb with paralysis of one fore limb; 4=full paralysis of two limbs; 4.5=moribund stage; 5=death. […] The drug treatments were continued till the termination of the study (day 41 post immunization). EAE animals without drug treatment received PBS. Likewise, healthy controls received vehicle.
Fluorescence flow cytometry analysis for each subset of CD4+ T cells (TH1, TH2, TH17, CD4+CD25+ FOXP3+ Treg, and CD4+CD25+ FOXP3− Treg) were performed based on our previous report with modification (Nath et al., 2004). Briefly, control mice, EAE mice. EAE mice treated with GSNO. […] Following the preparation of single cell suspension, red blood cells were lysed with Pharma lyse buffer (BD Pharmingen™) and the remaining spleen cells were washed with RPMI 1640. The isolated CD4+ T cells were then resuspended with complete RPMI-media in 12-well plates (5×10^6 cells' 2 ml per well) containing MOG peptide (25 μg/ml) for 48 hrs. […] The cell pellets were washed with cell staining solution (ebioscience, Waltham, Mass. USA) and stained with fluorescence labeled antibody specific to IFN-γ for TH1. […] The cells were counted and analyzed using Beackman Coulter instrument (Beckman Coulter, Inc., Brea, Calif., USA).
ELISA assay was performed for analysis of CD4+ T cell subset specific cytokines released from cultured cells or spinal cord tissues. […] The equal amounts of proteins were analyzed for ELISA for IFN-γ. […]

Cc1cc(C(N)=O)ccc1-n1c(CCC(=O)O)ccc1-c1ccc(-n2ccnc2)cc1 [N6022, reference compound] was tested, and the “IFN-γ in culture media of CNS derived lymphocytes” value was “decreased”, the “IL-4 release of CNS derived lymphocytes” value was “increased” and the “IL-17 in culture media of CNS derived lymphocytes” value was “decreased”. The “IL-10 expression of CNS derived lymphocytes” value (vs control levels) was “increased”.
